Assay [1] has as its target T1, mu opioid receptor (MOR) (Homo sapiens, UniProt P35372). Kind of assay: MOR GTPγS agonist assay. The settings on record: membranes of CHO cells over-expressing MOR; SPA beads; read-out: MOR GTPγS EC50. Details: host or cells: CHO-K1. It is filed as biochemical. The source says: Membranes obtained from the stable cell lines over-expressing MOR were subjected to GTPγS assay using SPA beads (Perkin Elmer, Cat #RPNQ0001).

Assay [2] addresses T1, mu opioid receptor (MOR). Kind of assay: MOR cAMP antagonist assay. Type of assay: cell-based. Details: host or cells: CHO-K1. The source says: MOR cAMP Antagonist Assay
The target of assay [3] is T2, kappa opioid receptor (KOR) (Homo sapiens, UniProt P41145).
T2 construct: host or cells: CHO-K1
Kind of assay: cell-based. The settings on record: after activation with dynorphin B. From the text: KOR cAMP Antagonist Assay

For assay [4], the target named is T1, mu opioid receptor (MOR). Kind of assay: MOR cAMP agonist assay.
Where [5] appears, read: kOR cAMP IC50, CHO-K1 cells expressing kOR.
Where [6] appears, read: CHO-K1 cells expressing kOR, read-out: kOR cAMP IC50.
Where [7] appears, read: read-out: mOR cAMP EC50, CHO-K1 cells stably expressing mOR, cAMP levels.

Each structure is given as a SMILES string. Read-outs that look alike come from different tables or passages of the source.

T1 sequence (P35372 whole entry): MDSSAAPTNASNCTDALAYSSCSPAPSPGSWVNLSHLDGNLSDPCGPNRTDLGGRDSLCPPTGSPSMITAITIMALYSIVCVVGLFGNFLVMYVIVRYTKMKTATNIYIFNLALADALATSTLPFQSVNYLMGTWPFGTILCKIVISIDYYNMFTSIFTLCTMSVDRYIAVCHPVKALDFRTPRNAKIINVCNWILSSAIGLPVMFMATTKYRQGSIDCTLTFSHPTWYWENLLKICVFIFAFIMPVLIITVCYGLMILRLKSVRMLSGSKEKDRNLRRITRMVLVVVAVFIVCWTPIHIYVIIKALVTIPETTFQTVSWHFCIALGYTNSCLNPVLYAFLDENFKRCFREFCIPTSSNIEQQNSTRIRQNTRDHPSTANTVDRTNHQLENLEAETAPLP
T2 sequence (P41145 whole entry): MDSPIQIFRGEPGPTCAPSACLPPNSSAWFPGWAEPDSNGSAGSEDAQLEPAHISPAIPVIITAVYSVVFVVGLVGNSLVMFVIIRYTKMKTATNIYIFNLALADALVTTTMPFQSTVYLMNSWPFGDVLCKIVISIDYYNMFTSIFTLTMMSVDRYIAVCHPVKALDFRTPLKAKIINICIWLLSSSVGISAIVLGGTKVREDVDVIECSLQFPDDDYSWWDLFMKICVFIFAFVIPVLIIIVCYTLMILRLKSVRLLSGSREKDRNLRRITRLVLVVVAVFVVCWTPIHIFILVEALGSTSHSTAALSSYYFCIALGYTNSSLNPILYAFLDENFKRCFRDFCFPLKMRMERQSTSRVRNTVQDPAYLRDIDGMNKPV

In general, EC50 refers to the concentration giving half of the maximal effect. As usually defined, the IC50 is the concentration needed to halve the response being measured. Turning to `CC(CC(=O)NC[C@H](Cc1ccc2c(c1)CC(=O)N2)N(C)C)c1ccccc1` (stereo in doubt) [Compound A-23, (S)—N—((S)-2-(dimethylamino)-3-(2-oxoindolin-5-yl)propyl)-3-phenylbutanamide], the EC50 in assay [1] is below 100 nM. In addition, the IC50 in assay [2] (read-out: MOR cAMP IC50, CHO-K1 cells expressing mOR, after activation with DAMGO at the EC80) was below 100 nM.

The molecule `CN(C)[C@H](CNC(=O)[C@@H]1C[C@]1(C)c1ccccc1)Cc1ccc(C(N)=O)cc1Cl` [Compound B-7, 3-chloro-4-((S)-2-(dimethylamino)-3-((1R,2S)-2-methyl-2-phenylcyclopropane-1-carboxamido)propyl)benzamide] displayed an IC50 in assay [3] (setting [5]) below 100 nM. Also, the half-maximal effective concentration (EC50) in assay [4] was below 100 nM.

`Cc1cc(C(N)=O)cc(C)c1C[C@@H](CNC(=O)[C@@H]1C[C@@]1(C)c1ccccc1)N(C)C` [Compound B-8, 4-((S)-2-(dimethylamino)-3-((1R,2R)-2-methyl-2-phenylcyclopropane-1-carboxamido)propyl)-3,5-dimethylbenzamide] showed an IC50 in assay [3] (setting [5]) of 100 to 1000 nM. The molecule further displayed a half-maximal effective concentration (EC50) in assay [4] below 100 nM.

`CN(C)[C@H](CNC(=O)[C@H]1CCCN1c1ccccc1)Cc1ccc(C(N)=O)cc1` [Compound B-9, (R)—N—((S)-3-(4-carbamoylphenyl)-2-(dimethylamino)propyl)-1-phenylpyrrolidine-2-carboxamide] came in with an IC50 in assay [3] (setting [5]) above 1000 nM. This molecule returned an EC50 in assay [4] of 100 to 1000 nM.

The molecule `CN(C)[C@H](CNC(=O)[C@@H]1CCCN1c1ccccc1)Cc1ccc(C(N)=O)cc1` [Compound B-10, (S)—N—((S)-3-(4-carbamoylphenyl)-2-(dimethylamino)propyl)-1-phenylpyrrolidine-2-carboxamide] registered an IC50 in assay [3] (setting [5]) of 100 to 1000 nM. The EC50 in assay [4] was 100 to 1000 nM.

Turning to `CN(C)[C@H](CNC(=O)[C@H]1C[C@@]1(C)c1ccccc1)Cc1ccc(O)cc1` [Compound B-11, (1S,2R)—N—((S)-2-(dimethylamino)-3-(4-hydroxyphenyl)propyl)-2-methyl-2-phenylcyclopropane-1-carboxamide], in assay [3] (setting [5]), the IC50 was above 1000 nM. Further, in assay [4], the EC50 fell in the range of 100 to 1000 nM.

As to `CN(C)[C@H](CNC(=O)[C@@H]1C[C@]1(C)c1ccccc1)Cc1ccc(O)cc1` [Compound B-12, (1R,2S)—N—((S)-2-(dimethylamino)-3-(4-hydroxyphenyl)propyl)-2-methyl-2-phenylcyclopropane-1-carboxamide], the IC50 in assay [3] (setting [5]) was below 100 nM. The EC50 in assay [4] was above 1000 nM.

`Cc1cc(O)cc(C)c1C[C@@H](CNC(=O)[C@@H]1C[C@@]1(C)c1ccccc1)N(C)C` [Compound B-13, (1R,2R)—N—((S)-2-(dimethylamino)-3-(4-hydroxy-2,6-dimethylphenyl)propyl)-2-methyl-2-phenylcyclopropane-1-carboxamide]: the IC50 in assay [3] (setting [5]) is below 100 nM. The EC50 in assay [4] is below 100 nM.

Molecule `CN(C)[C@H](CNC(=O)[C@@H]1C[C@@]1(C)c1ccccc1)Cc1c(F)cc(O)cc1F` [Compound B-14, (1R,2R)—N—((S)-3-(2,6-difluoro-4-hydroxyphenyl)-2-(dimethylamino)propyl)-2-methyl-2-phenylcyclopropane-1-carboxamide] returned an IC50 in assay [3] (setting [5]) above 1000 nM. This molecule had an EC50 in assay [4] below 100 nM.

As to `C[C@@]1(c2ccccc2)C[C@H]1C(=O)NC[C@@H]1Cc2ccc(O)cc2N1` [Compound B-16, (1R,2R)—N—(((S)-6-hydroxyindolin-2-yl)methyl)-2-methyl-2-phenylcyclopropane-1-carboxamide], the IC50 in assay [3] (setting [6]) was above 1000 nM. The molecule also yielded an EC50 in assay [4] above 1000 nM.

For the molecule `CN(C)[C@H](CNC(=O)[C@@H]1C[C@H]1c1ccccc1)Cc1ccc(O)cc1` [Compound B-17, (1R,2R)—N—((S)-2-(dimethylamino)-3-(4-hydroxyphenyl)propyl)-2-phenylcyclopropane-1-carboxamide], the IC50 in assay [3] (setting [5]) was 100 to 1000 nM. In assay [4], this molecule came in with an EC50 below 100 nM.

On to `CN(C)[C@H](CNC(=O)[C@@H]1C[C@]1(C)c1ccccc1)Cc1ccc2[nH]ncc2c1` [Compound B-19, (1R,2S)—N—((S)-2-(dimethylamino)-3-(1H-indazol-5-yl)propyl)-2-methyl-2-phenylcyclopropane-1-carboxamide], for which the half-inhibitory concentration (IC50) in assay [3] (setting [5]) was above 1000 nM. The EC50 in assay [4] is below 100 nM.

Take `CN(C)[C@H](CNC(=O)[C@@H]1C[C@@]1(C)c1ccccc1)Cc1ccc2[nH]ncc2c1` [Compound B-20, (1R,2R)—N—((S)-2-(dimethylamino)-3-(1H-indazol-5-yl)propyl)-2-methyl-2-phenylcyclopropane-1-carboxamide]: the IC50 in assay [3] (setting [5]) is above 1000 nM. In addition, the EC50 in assay [4] is below 100 nM.

`CN(C)[C@H](CNC(=O)[C@@H]1C[C@]1(C)c1ccccc1)Cc1ccc(C(=O)NC2CC2)c(F)c1` [Compound B-39, N-cyclopropyl-4-((S)-2-(dimethylamino)-3-((1R,2S)-2-methyl-2-phenylcyclopropane-1-carboxamido)propyl)-2-fluorobenzamide]: the IC50 in assay [3] (setting [5]) was above 1000 nM. In addition, in assay [4], the half-maximal effective concentration (EC50) was below 100 nM.

As to `Cc1cc(C[C@@H](CNC(=O)[C@@H]2C[C@]2(C)c2ccccc2)N(C)CC2CC2)ccc1O` [Compound B-40, (1R,2S)—N—((S)-2-((cyclopropylmethyl)(methyl)amino)-3-(4-hydroxy-3-methylphenyl)propyl)-2-methyl-2-phenylcyclopropane-1-carboxamide], in assay [3] (setting [5]), the IC50 was above 1000 nM. Besides, the EC50 in assay [4] is below 100 nM.

Take `C[C@]1(c2ccccc2)C[C@H]1C(=O)NC[C@H](Cc1ccc2[nH]ncc2c1)N1CCOCC1` [Compound B-43, (1R,2S)—N—((S)-3-(2H-indazol-5-yl)-2-morpholinopropyl)-2-methyl-2-phenylcyclopropane-1-carboxamide]: in assay [3] (setting [6]), the IC50 is above 1000 nM. The molecule further had an EC50 in assay [4] above 1000 nM.

On to `CNC(=O)c1ccc(C[C@@H](CNC(=O)[C@@H]2C[C@]2(C)c2ccccc2)N(C)C)cc1F` [Compound B-46, 4-((S)-2-(dimethylamino)-3-((1R,2S)-2-methyl-2-phenylcyclopropane-1-carboxamido)propyl)-2-fluoro-N-methylbenzamide], for which, in assay [3] (setting [5]), the concentration for half-maximal inhibition (IC50) was above 1000 nM. This molecule came in with an EC50 in assay [4] below 100 nM.

Take `CN(C)[C@H](CNC(=O)[C@@H]1C[C@]1(C)c1ccccc1)Cc1ccc2[nH]c(=O)oc2c1` [Compound B-49, (1R,2S)—N—((S)-2-(dimethylamino)-3-(2-oxo-2,3-dihydrobenzo[d]oxazol-6-yl)propyl)-2-methyl-2-phenylcyclopropane-1-carboxamide]: the IC50 in assay [3] (setting [5]) is above 1000 nM. Further, the EC50 in assay [4] was below 100 nM.

In turn, `CN(C)[C@H](CNC(=O)[C@@H]1C[C@]1(C)c1ccccc1)Cc1cc2cn[nH]c2cc1Cl` [Compound B-54, (1R,2S)—N—((S)-3-(6-chloro-2H-indazol-5-yl)-2-(dimethylamino)propyl)-2-methyl-2-phenylcyclopropane-1-carboxamide] registered an IC50 in assay [3] (setting [5]) of 100 to 1000 nM. Moreover, in assay [4], the EC50 is below 100 nM.

Turning to `CN(C)[C@H](CNC(=O)[C@H]1C[C@@]1(C)c1ccccc1)Cc1ccc(O)cc1` [Compound B-58, (1S,2R)—N—((S)-2-(dimethylamino)-3-(4-hydroxyphenyl)propyl)-2-methyl-2-phenylcyclopropane-1-carboxamide], the 50% inhibitory concentration (IC50) in assay [3] (read-out: kOR cAMP IC50, CHO-K1 cells expressing kOR) was above 1000 nM. In addition, the EC50 in assay [4] (setting [7]) lay within 100 to 1000 nM.

As to `CN(C)[C@H](CNC(=O)[C@@H]1C[C@@]1(C)c1ccccc1)Cc1ccc(C(N)=O)cc1Cl` [Compound B-60, 3-chloro-4-((S)-2-(dimethylamino)-3-((1R,2R)-2-methyl-2-phenylcyclopropane-1-carboxamido)propyl)benzamide], the IC50 in assay [3] (setting [5]) is below 100 nM. Also, in assay [4] (setting [7]), the EC50 was below 100 nM.

On to `CN(C)[C@H](CNC(=O)C1CC1(C)c1ccccc1)Cc1ccc(C(N)=O)cc1` (stereo partly drawn) [Compound B-61, 4-((2S)-2-(dimethylamino)-3-(2-methyl-2-phenylcyclopropane-1-carboxamido)propyl)benzamide], for which, in assay [3] (setting [5]), the IC50 is above 1000 nM. Moreover, the EC50 in assay [4] was below 100 nM.

For the molecule `CN(C)[C@H](CNC(=O)[C@@H]1C[C@@]1(C)c1ccccc1)Cc1ccc(O)cc1` [Compound B-62, (1R,2R)—N—((S)-2-(dimethylamino)-3-(4-hydroxyphenyl)propyl)-2-methyl-2-phenylcyclopropane-1-carboxamide], the IC50 in assay [3] (setting [5]) lay within 100 to 1000 nM. In assay [4], this molecule registered an EC50 below 100 nM.

Consider `CN(C)[C@H](CNC(=O)c1cc(F)c(Cl)c(F)c1)Cc1ccc(O)cc1Cl` [Compound C-1], for which the IC50 in assay [2] is below 100 nM.

In assay [2], `Cc1ccc(C(=O)NC[C@H](Cc2ccc(O)cc2Cl)N(C)C)cc1C` [Compound C-2, (S)—N-(3-(2-Chloro-4-hydroxyphenyl)-2-(dimethylamino)propyl)-3,4-dimethylbenzenamide] registered a half-maximal inhibitory concentration (IC50) below 100 nM.

`CN(C)[C@H](CNC(=O)c1ccc(Cl)c(Cl)c1)Cc1ccc(O)cc1Cl` [Compound C-7, (S)-3,4-Dichloro-N-(3-(2-chloro-4-hydroxyphenyl)-2-(dimethylamino)propyl)benzamide] returned a 50% inhibitory concentration (IC50) in assay [2] below 100 nM.

The molecule `CN(C)[C@H](CNC(=O)c1ccc(Br)c(Cl)c1)Cc1ccc(O)cc1Cl` [Compound C-8, (S)-4-bromo-3-chloro-N-(3-(2-chloro-4-hydroxyphenyl)-2-(dimethylamino)propyl)benzamide] had an IC50 in assay [2] below 100 nM.

`CC(=O)Oc1cc(C)c(C[C@@H](CNC(=O)c2ccc(Cl)c(Cl)c2)N(C)C)c(C)c1` [Compound C-56, (S)-4-(3-(3,4-dichlorobenzamido)-2-(dimethylamino)propyl)-3,5-dimethylphenyl acetate]: in assay [2], the IC50 was below 100 nM.

Source of the values: US20210147343A1 (priority 2018, published 2021).
